In patent US20190142800A1, “SYNERGISTIC ANTIFUNGAL COMPOSITIONS AND METHODS THEREOF” (VYOME THERAPEUTICS LIMITED, priority 2016, published 2019):

How the values were obtained:
C. albicans = experiment: Checkerboard assay of clotrimazole and oleic acid (C18) in C. albicans; assay type: cell-based, Candida albicans; conditions: clotrimazole + oleic acid, FIGS. 1B and 1C
Description: The synergy is measured by determining the fractional inhibitory concentration (FIC) value of the combination. This experimental set up, called checkerboard method, allows measurement of a desired effect (inhibition of fungal growth in this case) at different combinations of various concentrations of the two agents (antifungal agent and fatty acid/ester). […] No agent is added to the penultimate column on the right and the bottom row. The final column on the right is used for growth control (only inoculum in broth) and sterility control (broth alone, no inoculum). […] FIC value for each agent in a particular well of the checkerboard layout was calculated by dividing the agent concentration in that well by the established MIC value of the agent against the test organism (Hsieh et al., Synergy assessed by checkerboard: A critical Analysis, Diagn. Microbiol. Infect Dis. (1993) 16:343-349). FIC values for both agents in a particular well were calculated in this way followed by determination of the FIC index (sum of the FICs of each drug in the concerned well). […] Agents Chemother. (2010) 54(2): 602-609].

[1] = tested on: azole resistant C. albicans MTCC 227; experiment: Checkerboard assay on azole resistant C. albicans MTCC 227; assay type: cell-based, Candida albicans; conditions: for MIC: Candida albicans, MTCC227, agent alone
[2] = tested on: Trichophyton rubrum (ATCC-28188); experiment: Checkerboard assay of fatty acid/ester with antifungals on Trichophyton rubrum (ATCC 28188); assay type: cell-based; design: key to FIC index: FIC index = sum of FICs; FIC = agent conc in well / agent MIC; conditions: for MIC: Trichophyton rubrum, ATCC28188, agent alone
[3] = agent's MIC in combination antifungal + caprylic acid (partner: other agent of same combination no.)
[4] = agent's MIC in combination antifungal + glyceryl monocaprylate (partner: other agent of same combination no.)
[5] = agent's MIC in combination antifungal + lauric acid (partner: other agent of same combination no.)
[6] = agent's MIC in combination antifungal + propylene glycol monolaurate (partner: other agent of same combination no.)
[7] = antifungal in combination with caprylic acid
[8] = antifungal in combination with glyceryl monocaprylate
[9] = antifungal in combination with lauric acid
[10] = antifungal in combination with propylene glycol monocaprylate
[11] = antifungal in combination with propylene glycol monolaurate
[12] = antifungal in combination with undecylenic acid
[13] = combination antifungal + caprylic acid
[14] = combination antifungal + glyceryl monocaprylate
[15] = combination antifungal + lauric acid
[16] = combination antifungal + propylene glycol monolaurate

Clc1ccccc1C(c1ccccc1)(c1ccccc1)n1ccnc1 [Clotrimazole]
combination activity (interaction) with oleic acid (C18) (C. albicans): antagonistic effect
MIC ([1]; Table 9, caprylic acid (C8) series): 8 µg/mL
MIC ([1]; Table 10, propylene glycol monocaprylate series): 16 µg/mL
MIC ([1]; Table 11, glyceryl monocaprylate series): 16 µg/mL
MIC ([1]; Table 12, undecylenic acid (C11) series): 16 µg/mL
MIC ([1]; Table 13, lauric acid (C12) series): 8 µg/mL
MIC ([1]; Table 14, propylene glycol monolaurate series): 16 µg/mL
Combination MIC [1, 3]: 0.25 µg/mL
Combination MIC [1, 4]: 4 µg/mL
Combination MIC [1, 5]: 1 µg/mL
Combination MIC ([1]; agent's MIC in combination antifungal + propylene glycol monocaprylate (partner: other agent of same combination no.)): 4 µg/mL
Combination MIC [1, 6]: 8 µg/mL
Combination MIC ([1]; agent's MIC in combination antifungal + undecylenic acid (partner: other agent of same combination no.)): 2 µg/mL
FIC index [1, 7]: 0.093
Interaction [1, 7]: Synergistic (Combinations that gave FIC indices less than 1 were designated “synergistic”)
FIC index [1, 8]: 0.5
Interaction [1, 8]: Synergistic (Combinations that gave FIC indices less than 1 were designated “synergistic”)
FIC index [1, 9]: 0.187
Interaction [1, 9]: Synergistic (Combinations that gave FIC indices less than 1 were designated “synergistic”)
FIC index [1, 10]: 0.312
Interaction [1, 10]: Synergistic (Combinations that gave FIC indices less than 1 were designated “synergistic”)
FIC index [1, 11]: 0.515
Interaction [1, 11]: Synergistic (Combinations that gave FIC indices less than 1 were designated “synergistic”)
FIC index [1, 12]: 0.187
Interaction [1, 12]: Synergistic (Combinations that gave FIC indices less than 1 were designated “synergistic”)
FIC [1, 13]: 0.031
FIC [1, 14]: 0.25
FIC [1, 15]: 0.125
FIC ([1]; combination antifungal + propylene glycol monocaprylate): 0.25
FIC [1, 16]: 0.5
FIC ([1]; combination antifungal + undecylenic acid): 0.125
MIC ([2]; Table 1, caprylic acid series): 0.6 µg/mL
MIC ([2]; Table 2, propylene glycol monocaprylate series): 0.6 µg/mL
MIC ([2]; Table 3, glyceryl monocaprylate series): 0.6 µg/mL
MIC ([2]; Table 5, lauric acid (C12) series): 0.5 µg/mL
MIC ([2]; Table 6, propylene glycol monolaurate series): 0.5 µg/mL
Combination MIC [2, 3]: 0.075 µg/mL
Combination MIC [2, 4]: 0.075 µg/mL
Combination MIC [2, 5]: 0.125 µg/mL
Combination MIC [2, 6]: 0.125 µg/mL
FIC index [2, 7]: 0.375
Interaction [2, 7]: Synergistic (Combinations that gave FIC indices less than 1 were designated “synergistic”)
FIC index [2, 8]: 0.625
Interaction [2, 8]: Synergistic (Combinations that gave FIC indices less than 1 were designated “synergistic”)
FIC index [2, 9]: 0.75
Interaction [2, 9]: Synergistic (Combinations that gave FIC indices less than 1 were designated “synergistic”)
Interaction [2, 10]: Synergistic (Combinations that gave FIC indices less than 1 were designated “synergistic”)
FIC index [2, 11]: 0.5
Interaction [2, 11]: Synergistic (Combinations that gave FIC indices less than 1 were designated “synergistic”)
FIC [2, 13]: 0.125
FIC [2, 14]: 0.125
FIC [2, 15]: 0.25
FIC [2, 16]: 0.25
